Results as given in patent publication USRE46943E1, “Radioprotector compounds and methods” (PETER MACCALLUM CANCER INSTITUTE, priority 2010, dated 2018).

Legend:
[1] = system: transformed human keratinocyte cell line (FEP 1811); assay: Clonogenic survival cell culture assay for cytotoxicity; format: cell-based; conditions: Homo sapiens, Keratinocyte, light or radiation study; un-irradiated keratinocytes, one hour drug exposure, colonies counted after eight days; read-out: C50 (concentration of radioprotector that results in 50% clonogenic survival)
Outline: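 Mid-log monolayers exposed to test drug for 1 h, then pronase-dispersed and plated; colonies counted after 8 days. For […], irradiation at 0.6 Gy per minute began 30 min after drug addition, with total drug exposure held at 60 min before plating for clonogenic survival.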

[2] = system: mice; assay: Radioprotection of mouse jejunum, subcutaneous administration: local reaction at injection site; format: in vivo
Procedure: 2-Hydroxypropyl-β-cyclodextrin (HPCD, Sigma-Aldrich, typical MW 1540) vehicle solution was prepared by dissolving 3.6 g of HPCD in 9.3 mL of phosphate buffered saline (PBS) resulting in 30% v/w solution. […] The concentration of M2PB was measured following appropriate dilution in 45% MeOH 0.1% TFA using an extinction coefficient […] at 345 nm. The M2PB/HPCD stock was diluted to 8.75 mg/mL (22 mM) in HPCD vehicle to produce the final M2PB/HPCD formulation, which was injected subcutaneously into mice, between the shoulder blades (scruff of the neck) at a volume of 8×10^−3 ml/g body weight.
The subsequent irradiation and analysis was as described for Example 56.

[3] = system: mouse jejunum crypt clonogens; assay: Radioprotection of mouse jejunum by intravenous 2PH (surviving crypt clonogens); format: in vivo, C3H/HeJ mice
Procedure: C3H/HeJ mice were administered 2PH by intravenous (tail vein) injection (30 mM solution in acetate-buffered saline, pH5; 150 mg/kg) 2 hours prior to whole body irradiation (up to 19 Gy) with ^137Cs γ-rays (GammaCell 40 Irradiator, Nordion International Inc., Canada) at a dose rate of 0.73 Gy/min, in groups of 5. The mice were euthanised 3 days 14 hours post-irradiation and the jejunum excised. Five 1 cm jejunum sections were taken from each mouse and bundled with micropore tape before being fixed in neutral buffered formalin. Samples are then paraffin embedded, sectioned and stained with Hematoxylin-Eosin. The densely stained colonies (>10 cells) arising from proliferation of surviving crypt clonogens were counted and scored on the basis of colonies per circumference.
The data for each of the two experimental groups was fitted to the expression: N(D)=N0(1−e^−Se^−αD) Where: • N0 is the initial number of clonogens per circumference, • N(D) the number of surviving clonogens per circumference after a radiation dose of D Gy, • S is the number of clonogens per crypt, and • α is the reciprocal of radiation dose corresponding to a lethal event.

[4] = subcutaneous solutions in polyethylene glycol (MW 400), similar experiments with the jejunum model

Compound	IC50 [1] [µM]	local reaction or toxicity at the site of subcutaneous injection [2, 4]	α (reciprocal of radiation dose corresponding to a lethal event), derived by curve-fitting ([3]; 150 mg/kg intravenous 2 hours prior to whole body irradiation, control 0.529+/−0.048)	dose modification factor ([3]; 150 mg/kg intravenous, from α control and α 2PH)	melting point	local reaction or toxicity at the site of subcutaneous injection ([2]; M2PB/HPCD formulation (complex with 2-hydroxypropyl-β-cyclodextrin), 8.75 mg/mL subcutaneous)
CN1CCN(c2ccc3nc(-c4ccc5nc(-c6ccccn6)[nH]c5c4)[nH]c3c2)CC1 [Example 2, 2-(5′-(5″-(4′″-Methylpiperazin-1′″-yl)benzimidazol-2″-yl)benzimidazol-2′-yl)pyridine]	101	had been observed	0.431+/−0.039 Gy−1	1.23+/−0.15	–	–
Cc1ccc(-c2nc3ccc(-c4nc5ccc(N6CCN(C)CC6)cc5[nH]4)cc3[nH]2)nc1 [Example 6, 5-Methyl-2-(5′-(5″-(4′″-methylpiperazin-1′″-yl)benzimidazol-2″-yl)benzimidazol-2′-yl)pyridine]	58.4	–	–	–	200 to 204 °C	–
c1ccc(-c2nc3ccc(-c4nc5ccc(N6CCOCC6)cc5[nH]4)cc3[nH]2)nc1 [Example 19, 2-(5′-(5″-Morpholinobenzimidazol-2″-yl)benzimidazol-2′-yl)pyridine]	150	had been observed	–	–	–	no indication of local reaction or toxicity
OC1CCN(c2ccc3nc(-c4ccc5nc(-c6cc7ccccc7cn6)[nH]c5c4)[nH]c3c2)CC1 [Example 23, 3-(5′-(5″-(4′″-Hydroxypiperidin-1′″-yl)benzimidazol-2″-yl)benzimidazol-2′-yl)isoquinoline]	589	–	–	–	222 °C (dec.)	–
